Data taken from US20200216441A1, “PESTICIDALLY ACTIVE HETEROCYCLIC DERIVATIVES WITH SULFUR CONTAINING SUBSTITUENTS” (SYNGENTA PARTICIPATIONS AG, priority 2017, published 2020).

Tests used:
[1] = system: Spodoptera littoralis (Egyptian Cotton Leaf Worm); experiment: whole plant or invertebrate; conditions: in Gossypium barbadense, foliar, 72 h, read-out: control (mortality, anti-feeding effect, growth inhibition)
[2] = system: Diabrotica Balteata (Corn Root Worm); experiment: Diabrotica balteata (Corn Root Worm); conditions: in Zea mays, 96 h, read-out: effect in at least one of the two categories (mortality or growth inhibition)
[3] = system: Myzus persicae (Green Peach Aphid); experiment: whole plant or invertebrate; type: in vivo; conditions: 144 h, test rate of 24 ppm, systemic, roots of infested pea seedlings in test solution, 6 days
[4] = system: Myzus persicae (Green Peach Aphid); experiment: whole plant or invertebrate; conditions: foliar, 144 h
[5] = system: Frankliniella occidentalis (Western Flower Thrips); conditions: foliar, 168 h
[6] = system: Bemisia tabaci (Cotton White Fly); conditions: in Gossypium hirsutum, foliar, 144 h
[7] = system: Euschistus heros (Neotropical Brown Stink Bug); experiment: whole plant or invertebrate; type: in vivo; conditions: 120 h, application rate of 200 ppm, N2 nymphs on sprayed soybean leaves, 5 days after infestation, read-out: effect in at least one of the two categories (mortality or growth inhibition)
[8] = system: Plutella xylostella (Diamond Back Moth); experiment: whole plant or invertebrate; type: in vivo; conditions: 120 h, application rate of 200 ppm, L2 larvae on treated artificial diet, 5 days after infestation, read-out: effect in at least one of the two categories (mortality or growth inhibition)
[9] = system: Tetranychus urticae (Two-Spotted Spider Mite); conditions: foliar, 192 h

melting point | Structure (SMILES) | mortality at 200 ppm [1] | mortality at 200 ppm [2] | mortality at 200 ppm [4] | mortality at 200 ppm [6] | percent effect (mortality or growth inhibition) at 200 ppm [7] | further results
122 to 124 °C | CCS(=O)(=O)c1cc(OC(C(=O)OC)S(C)(=O)=O)cnc1-c1nc2cc(C(F)(F)F)ncc2n1C (stereo not shown) | – | – | – | – | – | –
– | CCS(=O)(=O)c1cc(OCSC)cnc1-c1nc2cc(C(F)(F)F)ncc2n1C [Compound P10, 2-[3-ethylsulfonyl-5-(methylsulfanylmethoxy)-2-pyridyl]-3-methyl-6-(trifluoromethyl)imidazo[4,5-c]pyridine] | ≥ 80% | ≥ 80% | ≥ 80% | ≥ 80% | ≥ 80% | mortality at 24 ppm [3]: ≥ 80%; mortality at 200 ppm [5]: ≥ 80%
– | CCS(=O)(=O)c1cc(OC(C)(F)F)cnc1-c1nc2cc(C(F)(F)F)ncc2n1C [Compound P78, 2-[5-(1,1-difluoroethoxy)-3-ethylsulfonyl-2-pyridyl]-3-methyl-6-(trifluoromethyl)imidazo[4,5-c]pyridine] | ≥ 80% | ≥ 80% | ≥ 80% | ≥ 80% | ≥ 80% | mortality at 24 ppm [3]: ≥ 80%; mortality at 200 ppm [5]: ≥ 80%; percent effect (mortality or growth inhibition) at 200 ppm [8]: ≥ 80%
– | CCS(=O)(=O)c1cc(OCC2(C#N)CC2)cnc1-c1nc2cc(C(F)(F)F)ncc2n1C [Compound P79, 1-[[5-ethylsulfonyl-6-[3-methyl-6-(trifluoromethyl)imidazo[4,5-c]pyridin-2-yl]-3-pyridyl]oxymethyl]cyclopropanecarbonitrile] | ≥ 80% | ≥ 80% | ≥ 80% | ≥ 80% | ≥ 80% | mortality at 24 ppm [3]: ≥ 80%; percent effect (mortality or growth inhibition) at 200 ppm [8]: ≥ 80%; mortality at 200 ppm [9]: ≥ 80%
161 to 163 °C | CCSc1cc(OC(C)(C)C(=O)O)cnc1-c1nc2cc(C(F)(F)F)ncc2n1C | – | – | – | – | – | –
142 to 144 °C | CCS(=O)(=O)c1cc(OC(SC)C(N)=O)cnc1-c1nc2cc(C(F)(F)F)ncc2n1C (stereo not shown) | – | – | – | – | – | –
204 to 206 °C | CCS(=O)(=O)c1cc(OC(C#N)SC)cnc1-c1nc2cc(C(F)(F)F)ncc2n1C (stereo not shown) | – | – | – | – | – | –
145 to 147 °C | CCOC(=O)C(C)(C)Oc1cnc(-c2nc3cc(C(F)(F)F)ncc3n2C)c(S(=O)(=O)CC)c1 | – | – | – | – | – | –
94 to 96 °C | CCS(=O)(=O)c1cc(OC(SC)C(=O)OC)cnc1-c1nc2cc(C(F)(F)F)ncc2n1C (stereo not shown) | – | – | – | – | – | –
131 to 133 °C | CCS(=O)(=O)c1cc(OC(C)C(=O)OC)cnc1-c1nc2cc(C(F)(F)F)ncc2n1C (stereo not shown) | – | – | – | – | – | –
242 to 244 °C | CCS(=O)(=O)c1cc(OC(C)(C)C(=O)O)cnc1-c1nc2cc(C(F)(F)F)ncc2n1C | – | – | – | – | – | –
137 to 139 °C | CCS(=O)(=O)c1cc(OC(F)(F)CBr)ccc1-c1nc2cc(C(F)(F)F)ncc2n1C | – | – | – | – | – | –
– | CCS(=O)(=O)c1cc(OC(C)(C)C)cnc1-c1nc2cc(C(F)(F)F)ncc2n1C [Compound P5, 2-(5-tert-butoxy-3-ethylsulfonyl-2-pyridyl)-3-methyl-6-(trifluoromethyl)imidazo[4,5-c]pyridine] | ≥ 80% | ≥ 80% | ≥ 80% | ≥ 80% | ≥ 80% | mortality at 24 ppm [3]: ≥ 80%; percent effect (mortality or growth inhibition) at 200 ppm [8]: ≥ 80%; mortality at 200 ppm [9]: ≥ 80%
– | CCS(=O)(=O)c1cc(OC(C)(C)C(F)(F)F)cnc1-c1nc2cc(C(F)(F)F)ncc2n1C [Compound P76, 2-[3-ethylsulfonyl-5-(2,2,2-trifluoro-1,1-dimethyl-ethoxy)-2-pyridyl]-3-methyl-6-(trifluoromethyl)imidazo[4,5-c]pyridine] | ≥ 80% | ≥ 80% | ≥ 80% | ≥ 80% | ≥ 80% | percent effect (mortality or growth inhibition) at 200 ppm [8]: ≥ 80%; mortality at 200 ppm [9]: ≥ 80%
138 to 140 °C | CCS(=O)(=O)c1cc(OC(C)(C)C(C)=O)cnc1-c1nc2cc(C(F)(F)F)ncc2n1C | – | – | – | – | – | –
142 to 144 °C | CCS(=O)(=O)c1cc(OC(C)(F)F)ccc1-c1nc2cc(C(F)(F)F)ncc2n1C | – | – | – | – | – | –
